In brackets after ≈: the same amount, converted by molar mass.
Tests used:
PBP1a = PBP1a (Acinetobacter baumannii, UniProt A0ABX6CK30); test: PBP-binding assay, Bocillin FL competition, membrane preparations; details: A. baumannii ATCC 19606, read-out: IC50 (binding affinity) PBP1a
Experimental: The possible involvement of A. baumannii PBPs as enmetazobactam targets was evaluated. […] The PBP-binding IC50 was determined in membrane preparations from three independent experiments, following previously described protocols ([13]).
Briefly, A. baumannii cultures were grown in Mueller-Hinton broth at 37°C with shaking at 180 rpm, and 400 mL were collected in late log phase (OD₆₀₀nm= 1), washed, and resuspended in 20 mM KH₂PO₄ and 140 mM NaCl (pH 7.5). After sonication, bacterial membranes were isolated by ultracentrifugation (150,000 g, 30 min). […] The Bocillin FL signal is inversely proportional to the binding capacity of the compounds tested to PBPs ([35]). The PBPs were separated by SDS-PAGE (Bio-Rad) and visualized with Odyssey M Imager (LI-COR). The IC₅₀ values were calculated using Empiria Studio software (LI-COR). The binding affinity was determined by comparing the change of the fluorescence in the presence or absence of the tested sulfones.

[1] = test system: carbapenem-resistant CHDL-producing A. baumannii isolates (OXA-23, OXA-24/40, OXA-58); test: Checkerboard synergy assay (FIC index); assay type: cell-based, Acinetobacter baumannii; details: Acinetobacter baumannii, alone or in presence of the partner
Experimental: Checkerboard assays were performed to assess synergistic interactions between the cefepime/enmetazobactam combination and sulbactam, as well as between enmetazobactam alone and either sulbactam or colistin. […] The assays were conducted with three multidrug-resistant A. baumannii isolates from the Spanish Multicenter Collection, each producing a different OXA-type carbapenemase: OXA-23, OXA-24/40, or OXA-58. The FIC index was calculated and interpreted as follows: FICindex ≤ 0.5, synergy; FICindex > 0.5–4, no synergy; and FICindex > 4, antagonism ([33], [34]).

OXA-23 = target: T1, OXA-23 (Acinetobacter baumannii, UniProt Q9L4P2); test: Jump-dilution dissociation assay (koff, t1/2) with OXA-23; assay type: biochemical; details: jump dilution, accurate koff not determinable
T1 construct: GST (N); made in house; host or cells: Escherichia coli BL21
Experimental: The Michaelis-Menten constant (Km) was determined by fitting the data to the Michaelis-Menten equation, following established protocols ([38]). The kcat (hydrolysis rate constant of the β-lactamase) was obtained by linearization of the kinetic data ([39]). To assess the possible inhibitory capacity of enmetazobactam against the CHDLs of A. baumannii, specific OXA-23 inhibition kinetics assays were performed in a Nanoquant Infinite spectrophotometer (Tecan). […] Also, the dissociation constant (koff), which represents the rate at which the enzyme-inhibitor complex dissociates (i.e., the proportion of the enzyme-inhibitor complex that dissociates per unit of time), was determined through a jump-dilution assay that monitored OXA-23 activity recovery as the enzyme-inhibitor complex dissociated. OXA-23 (1 µM) was preincubated for 30 min at 37°C with excess of inhibitors (50× IC₅₀) to ensure full acyl-enzyme complex formation. Subsequently, the mixture was diluted 1:5,000 to allow gradual complex dissociation. […] Enzymatic activity, reflecting the progressive dissociation of the acyl-enzyme complex, was monitored spectrophotometrically at 490 nm for 8 h. The resulting progress curves were fitted using GraphPad Prism (GraphPad Software, MA, USA) to equation 1 to estimate koff, where V0 is the initial, inhibited enzyme velocity; Vs is the steady-state uninhibited enzyme velocity, and t is time.
(1) P=Vs×t+(V0−Vs)×[1−exp^(−koff × t)]/koff

[2] = test system: Acinetobacter spp. clinical isolates; test: MBC testing, nine clinical isolates; assay type: cell-based; details: for MBC relative to MIC: nine clinical isolates, most of the isolates
Experimental: In order to determine the bactericidal activity of enmetazobactam, MBC testing was carried out by subculturing 100 μL aliquots from wells containing antimicrobial concentrations equal to or greater than the MIC of enmetazobactam onto Mueller-Hinton agar plates. […] The MBCs were evaluated for a total of nine clinical isolates: (i) three CRAB, (ii) three carbapenem-susceptible A. baumannii, and (iii) three A. non-baumannii isolates. The plates were incubated at 37°C for 24 h, and viable colonies were counted.

[3] = checkerboard sulbactam x enmetazobactam, isolate Ab4 (OXA-23)
[4] = checkerboard sulbactam x enmetazobactam, isolate Ab138 (OXA-58)
[5] = checkerboard sulbactam x enmetazobactam, isolate Ab180 (OXA-24/40)
[6] = Acinetobacter, isolate NO-Ab84, A. bereziniae
[7] = Acinetobacter, isolate NO-Ab88, A. dijkshoorniae
[8] = isolate Ab1, A. baumannii ST 164, ADC-6, OXA-91, non-CHDLs-producing
[9] = isolate Ab4, A. baumannii ST 2, ADC-30, OXA-66, ISAba1-OXA-23
[10] = isolate Ab6, A. baumannii ST 2, ADC-30, OXA-66, ISAba1-OXA-23, TEM-12
[11] = isolate Ab9, A. baumannii ST 2, ADC-30, OXA-66, OXA-23, TEM-12
[12] = isolate Ab11, A. baumannii ST 239, ADC-2, OXA-51, non-CHDLs-producing
[13] = isolate Ab34, A. baumannii ST 2182, ADC-2, OXA-130, non-CHDLs-producing

Chain of PBP1a (A0ABX6CK30 entry or part of it): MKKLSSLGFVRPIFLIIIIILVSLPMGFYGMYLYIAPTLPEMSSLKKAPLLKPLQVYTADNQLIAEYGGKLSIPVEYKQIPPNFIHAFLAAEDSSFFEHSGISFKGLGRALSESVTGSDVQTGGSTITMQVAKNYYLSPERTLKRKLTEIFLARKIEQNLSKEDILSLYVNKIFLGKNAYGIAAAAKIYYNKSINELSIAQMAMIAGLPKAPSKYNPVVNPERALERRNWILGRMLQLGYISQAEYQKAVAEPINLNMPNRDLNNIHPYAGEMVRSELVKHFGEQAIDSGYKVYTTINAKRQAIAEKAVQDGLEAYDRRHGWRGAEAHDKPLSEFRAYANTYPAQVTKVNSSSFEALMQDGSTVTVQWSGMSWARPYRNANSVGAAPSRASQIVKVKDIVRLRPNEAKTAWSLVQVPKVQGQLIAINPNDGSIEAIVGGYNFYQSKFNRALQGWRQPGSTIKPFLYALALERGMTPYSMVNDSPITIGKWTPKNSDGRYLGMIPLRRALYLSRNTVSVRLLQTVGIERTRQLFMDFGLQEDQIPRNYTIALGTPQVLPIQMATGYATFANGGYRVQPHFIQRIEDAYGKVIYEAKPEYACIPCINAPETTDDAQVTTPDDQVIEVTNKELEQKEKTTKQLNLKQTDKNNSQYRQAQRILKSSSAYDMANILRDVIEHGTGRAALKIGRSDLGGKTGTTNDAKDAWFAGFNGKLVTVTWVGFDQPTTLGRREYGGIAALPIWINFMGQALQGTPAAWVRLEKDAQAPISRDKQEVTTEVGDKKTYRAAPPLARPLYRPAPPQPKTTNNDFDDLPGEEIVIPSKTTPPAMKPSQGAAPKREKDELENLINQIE
T1 sequence (Q9L4P2 18-273): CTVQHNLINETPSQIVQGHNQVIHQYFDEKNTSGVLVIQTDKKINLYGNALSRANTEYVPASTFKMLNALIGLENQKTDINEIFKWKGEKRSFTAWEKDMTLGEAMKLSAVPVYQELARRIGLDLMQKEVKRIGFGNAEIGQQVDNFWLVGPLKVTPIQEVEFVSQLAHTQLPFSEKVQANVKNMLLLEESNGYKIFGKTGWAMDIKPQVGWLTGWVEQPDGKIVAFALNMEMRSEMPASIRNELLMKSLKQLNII

For `C[n+]1ccn(C[C@@]2(C)[C@H](C(=O)[O-])N3C(=O)C[C@H]3S2(=O)=O)n1` [enmetazobactam], the IC50 (PBP1a) was > 204 µM, the MIC ([1]; checkerboard colistin x enmetazobactam, isolate Ab4 (OXA-23)) was 64 µg/mL and the MIC ([1]; checkerboard colistin x enmetazobactam, isolate Ab138 (OXA-58)) was 32 µg/mL. For the same molecule, the MIC ([1]; checkerboard colistin x enmetazobactam, isolate Ab180 (OXA-24/40)) was 16 µg/mL, the MIC [1, 3] was 128 µg/mL and the MIC [1, 4] was 32 µg/mL. For the same molecule, the MIC [1, 5] was 16 µg/mL, the “koff relative to that of durlobactam” value (OXA-23) was > 1,000 fold and the MBC [2, 6] was 2 µg/mL (≈ 6.36 µM). For the same molecule, the MBC [2, 7] was 2 µg/mL (≈ 6.36 µM), the MBC [2, 8] was 4 µg/mL (≈ 12.7 µM) and the MBC [2, 9] was 64 µg/mL (≈ 204 µM). It also gave an MBC [2, 10] of 64 µg/mL (≈ 204 µM), an MBC [2, 11] of 8 µg/mL (≈ 25.5 µM) and an MBC [2, 12] of 16 µg/mL (≈ 50.9 µM). The MBC [2, 13] was 8 µg/mL (≈ 25.5 µM), the MBC ([2]; isolate NO-Ab89, A. pittii) was 2 µg/mL (≈ 6.36 µM) and the “MBC relative to MIC” value [2] was “the same or up to twofold higher”.

In the case of `CC1(C)[C@H](C(=O)O)N2C(=O)C[C@H]2S1(=O)=O` [sulbactam], the IC50 (PBP1a) is reported as > 274 µM, the MIC [1, 3] is reported as 16 µg/mL and the MIC [1, 4] is reported as 8 µg/mL. The MIC [1, 5] was 2 µg/mL, the MBC [2, 6] was 1 µg/mL (≈ 4.29 µM) and the MBC [2, 7] was 0.5 µg/mL (≈ 2.14 µM). For the same molecule, the MBC [2, 8] was 1 µg/mL (≈ 4.29 µM), the MBC [2, 9] was 16 µg/mL (≈ 68.6 µM) and the MBC [2, 10] was 16 µg/mL (≈ 68.6 µM). It also gave an MBC [2, 11] of 4 µg/mL (≈ 17.1 µM), an MBC [2, 12] of 2 µg/mL (≈ 8.57 µM) and an MBC [2, 13] of 0.5 µg/mL (≈ 2.14 µM). For the same molecule, the MBC ([2]; isolate NO-Ab89, A. pittii) was 0.5 µg/mL (≈ 2.14 µM) and the “MBC relative to MIC” value [2] was “the same or up to twofold higher”.
